Series [1] in a line: Vitamin E determination by HPLC (fluorescence). It counts as physicochemical. The protocol:
The vitamin E content was determined by HPLC (fluorescence) and evaluated for each sample: […]

The nature of series [2]: Cutaneous penetration study of vitamin E on Franz cell (diffusion, release, storage). It counts as in vitro ADME, rat. The conditions noted are these: for percentage of vitamin E diffused: 2 g deposited, 2.54 cm^2 Franz cell, ethoxydiglycol receptor. The protocol: Cutaneous penetration studies were carried out on products 26-a, 26-b, 26-c and 26-d from example 26. […] The receptor chamber was constituted by ethoxydiglycol and antibiotics. Diffusion was monitored over time by sampling from the receptor chamber then HPLC analysis (fluorescence). […] After rinsing the biopsy used in the diffusion study, it was kept in the Franz cell for 24 hours without donors. The quantity of active ingredient liberated in the ethoxydiglycol was then analyzed by HPLC, underlining the ability of the skin to temporarily retain the test solution (release study).

A short description of series [3]: Aspect of the solution obtained / nanoparticle formation. It counts as physicochemical. The protocol:
The solution was then added at a constant rate (1 ml/s) to distilled water (450 ml) with stirring to form a milky solution. […] The procedure of example 15 was followed but instead of using the compound obtained in example 2, a commercial β-cyclodextrin with an identical molar concentration was used.

The subject of series [4] is skin of rabbits. As to the kind of experiment: Evaluation of primary dermal irritation in the rabbit. It counts as in vivo. The conditions noted are these: 10% in a 0.5% xanthan gel, undiluted, 0.5 ml. As to the method: Toxicological tests were carried out on the compound obtained in example 2a incorporated in an amount of 10% into a 0.5% xanthan gel, by occular evaluation in the rabbit, by a study of the absence of abnormal toxicity by a single oral administration to the rat and by a sensitization power study in the guinea-pig.
At the same time, a toxicological study was carried out under the same experimental conditions on commercial β-cyclodextrin incorporated in an amount of 10% into a 0.5% xanthan gel.
The preparations described above were applied undiluted in a dose of 0.5 ml to the skin of 3 rabbits using the method recommended by the OECD directive regarding the study of “The acute dermal irritant/corrosive effect”.
The products were classified in accordance with the criteria in the order of Feb. 1, 1982 published in the JORF [Official journal of the French Republic] on Feb. 2, 1982.

A short description of series [5]: Cutaneous penetration test of caffeine on Franz cell (diffusion, release, storage). The conditions noted are these: for average quantity of caffeine per unit surface diffused into the receptor chamber: 2 g deposited, 2.54 cm^2 Franz cell, PBS receptor. It counts as in vitro ADME, rat. As to the method:
The receptor chamber was constituted by a PBS buffer and antibiotics. Diffusion was monitored over time by sampling from the receptor chamber and analysis by high performance liquid chromatography. […] After rinsing the biopsy used in the diffusion study, it was kept in the Franz cell for 24 hours without donors. The quantity of active ingredient liberated in the PBS buffer was then analyzed by HPLC, to study the ability of the skin to temporarily retain the test solution (Release study).

Where [6] appears, read: biopsy in ethanolic solution 24 hours after release study.
Where [7] appears, read: rinsed biopsy kept in Franz cell 24 hours without donors.

Consider `Cc1c(C)c2c(c(C)c1O)CC[C@@](C)(CCC[C@H](C)CCC[C@H](C)CCCC(C)C)O2` [Example 26-d, vitamin E], for which, in series [1] (0.1% of vitamin E used), the “Vitamin E determination (vitamin E content of sample)” value came out at 0.0943%. The “percentage of vitamin E diffused” value is 0 in series [2] (0 hours) and 10.32% in series [2] (48 hours). Moreover, in series [2] (setting [6]), the “Storage (vitamin E still present in the skin)” value turned out to be 1.74 ± 0.24 % diffusion. Besides, in series [2] (setting [7]), the “Release (vitamin E liberated in the ethoxydiglycol)” value amounted to 3.33 ± 0.9 % diffusion.
For the compound `OC[C@H]1O[C@@H]2O[C@H]3[C@H](O)[C@@H](O)[C@@H](O[C@H]4[C@H](O)[C@@H](O)[C@@H](O[C@H]5[C@H](O)[C@@H](O)[C@@H](O[C@H]6[C@H](O)[C@@H](O)[C@@H](O[C@H]7[C@H](O)[C@@H](O)[C@@H](O[C@H]8[C@H](O)[C@@H](O)[C@@H](O[C@H]1[C@H](O)[C@H]2O)O[C@@H]8CO)O[C@@H]7CO)O[C@@H]6CO)O[C@@H]5CO)O[C@@H]4CO)O[C@@H]3CO` [commercial β-cyclodextrin, β-cyclodextrin], the “solubility in water (in words)” value in series [3] is listed as “soluble in water”. In addition, the “nanoparticle formation (in words)” value in series [3] (nanoparticle protocol with commercial β-cyclodextrin at identical molar concentration) is “no nanoparticles are formed”. Moreover, the “primary dermal irritation classification” value in series [4] is reported as “slight irritant for the skin”.
Consider (Lauroate)y-β-cyclodextrin [Example 2a], for which the “encapsulation of vitamin E (in words)” value in series [1] is on record as “encapsulated the vitamin E highly effectively”. The “primary dermal irritation classification” value in series [4] is on record as “non irritant to the skin”.
For the compound `Cn1c(=O)c2c(ncn2C)n(C)c1=O` [Caffeine free, caffeine], the results for the “average quantity of caffeine per unit surface diffused into the receptor chamber” value in series [5] (0 hours) and in series [5] (24 hours) were 0 μg/cm^2 and 1783 μg/cm^2, respectively. The “Storage (caffeine still present in the skin)” value in series [5] (setting [6]) came out at 26.57 ± 6.55 μg/cm2. Also, in series [5] (setting [7]), the “Release (caffeine liberated in the PBS buffer)” value was 286.8 ± 28.36 μg/cm2.

Values taken from patent publication US6524595B1, “Cyclodextrins preferentially substituted on their primary face by acid or amine functions” (priority 2000, dated 2003).
